Measurements: the supplement of paper PMC10307832

Key:
Assay in all cases: relative viability (nuclei count vs DMSO), 5 days (fraction); higher = more cells survive
BEN = test system: BEN
How it was run: (§1)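 Relative viability is defined as nuclei in treated wells over nuclei in vehicle wells. Duplicate plates were run and medians reported. Lung cancer cell lines in 1536-well plates were dosed by pin tool one day after seeding, with one drug or with a fixed anchor-drug dose plus five library-drug doses (not always all listed) in √10 steps, and nuclei were counted after 5 days.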

NCI-H727 = test system: NCI-H727
How it was run: as §1

RERF-LC-KJ = test system: RERF-LC-KJ
How it was run: as §1

NCI-H1944 = test system: NCI-H1944
How it was run: as §1

NCI-H1650 = test system: NCI-H1650
How it was run: as §1

NCI-H2228 = test system: NCI-H2228
How it was run: as §1

NCI-H2405 = test system: NCI-H2405
How it was run: as §1

NCI-H1793 = test system: NCI-H1793
How it was run: as §1

NCI-H1395 = test system: NCI-H1395
How it was run: as §1

LCLC-103H = test system: LCLC-103H
How it was run: as §1

SK-LU-1 = test system: SK-LU-1
How it was run: as §1

NCI-H2087 = test system: NCI-H2087
How it was run: as §1

NCI-H1437 = test system: NCI-H1437
How it was run: as §1

201T = test system: 201T
How it was run: as §1

NCI-H647 = test system: NCI-H647
How it was run: as §1

CAL-12T = test system: CAL-12T
How it was run: as §1

NCI-H322M = test system: NCI-H322M
How it was run: as §1

HCC-827 = test system: HCC-827
How it was run: as §1

NCI-H3122 = test system: NCI-H3122
How it was run: as §1

LCLC-97TM1 = test system: LCLC-97TM1
How it was run: as §1

LXF-289 = test system: LXF-289
How it was run: as §1

Work on `Nc1ccn([C@@H]2O[C@H](CO)[C@@H](O)[C@@H]2O)c(=O)n1` [Cytarabine] + COc1cc2c(Oc3ccc(NC(=O)C4(C(=O)Nc5ccc(F)cc5)CC4)cc3F)ccnc2cc1OCCCN1CCOCC1 [Foretinib] (partner 0.25 µM) yielded a relative viability (BEN; first compound 0.005 µM) of 0.768, a relative viability (BEN; first compound 0.01581 µM) of 0.515 and a relative viability (BEN; first compound 0.05 µM) of 0.301. It also gave a relative viability (BEN; first compound 0.1581 µM) of 0.278, a relative viability (BEN; first compound 0.5 µM) of 0.222 and a relative viability (NCI-H727; first compound 0.005 µM) of 0.656. The relative viability (NCI-H727; first compound 0.01581 µM) was 0.681, the relative viability (NCI-H727; first compound 0.05 µM) was 0.597 and the relative viability (NCI-H727; first compound 0.1581 µM) was 0.488. For the same compound, the relative viability (NCI-H727; first compound 0.5 µM) was 0.397, the relative viability (RERF-LC-KJ; first compound 0.005 µM) was 0.855 and the relative viability (RERF-LC-KJ; first compound 0.01581 µM) was 0.787. It also gave a relative viability (RERF-LC-KJ; first compound 0.05 µM) of 0.735, a relative viability (RERF-LC-KJ; first compound 0.1581 µM) of 0.545 and a relative viability (RERF-LC-KJ; first compound 0.5 µM) of 0.469. For the same compound, the relative viability (NCI-H1944; first compound 0.005 µM) was 0.633, the relative viability (NCI-H1944; first compound 0.01581 µM) was 0.438 and the relative viability (NCI-H1944; first compound 0.05 µM) was 0.331. It also gave a relative viability (NCI-H1944; first compound 0.1581 µM) of 0.223, a relative viability (NCI-H1944; first compound 0.5 µM) of 0.168 and a relative viability (NCI-H1650; first compound 0.005 µM) of 0.783. It also gave a relative viability (NCI-H1650; first compound 0.01581 µM) of 0.973, a relative viability (NCI-H1650; first compound 0.05 µM) of 0.73 and a relative viability (NCI-H1650; first compound 0.1581 µM) of 0.347. The relative viability (NCI-H1650; first compound 0.5 µM) was 0.211, the relative viability (NCI-H2228; first compound 0.005 µM) was 0.479 and the relative viability (NCI-H2228; first compound 0.01581 µM) was 0.563. For the same compound, the relative viability (NCI-H2228; first compound 0.05 µM) was 0.285, the relative viability (NCI-H2228; first compound 0.1581 µM) was 0.173 and the relative viability (NCI-H2228; first compound 0.5 µM) was 0.166. It also gave a relative viability (NCI-H2405; first compound 0.005 µM) of 1.02, a relative viability (NCI-H2405; first compound 0.01581 µM) of 0.908 and a relative viability (NCI-H2405; first compound 0.05 µM) of 0.747. The relative viability (NCI-H2405; first compound 0.1581 µM) was 0.618, the relative viability (NCI-H2405; first compound 0.5 µM) was 0.493 and the relative viability (NCI-H1793; first compound 0.005 µM) was 0.812. It also gave a relative viability (NCI-H1793; first compound 0.01581 µM) of 0.684, a relative viability (NCI-H1793; first compound 0.05 µM) of 0.683 and a relative viability (NCI-H1793; first compound 0.1581 µM) of 0.545. For the same compound, the relative viability (NCI-H1793; first compound 0.5 µM) was 0.494, the relative viability (NCI-H1395; first compound 0.005 µM) was 0.917 and the relative viability (NCI-H1395; first compound 0.01581 µM) was 0.757. The relative viability (NCI-H1395; first compound 0.05 µM) was 0.548, the relative viability (NCI-H1395; first compound 0.1581 µM) was 0.492 and the relative viability (NCI-H1395; first compound 0.5 µM) was 0.413. It also gave a relative viability (LCLC-103H; first compound 0.005 µM) of 0.849, a relative viability (LCLC-103H; first compound 0.01581 µM) of 0.817 and a relative viability (LCLC-103H; first compound 0.05 µM) of 0.96. For the same compound, the relative viability (LCLC-103H; first compound 0.1581 µM) was 0.604, the relative viability (LCLC-103H; first compound 0.5 µM) was 0.57 and the relative viability (SK-LU-1; first compound 0.005 µM) was 0.735. The relative viability (SK-LU-1; first compound 0.01581 µM) was 0.759, the relative viability (SK-LU-1; first compound 0.05 µM) was 0.538 and the relative viability (SK-LU-1; first compound 0.1581 µM) was 0.302. For the same compound, the relative viability (SK-LU-1; first compound 0.5 µM) was 0.23, the relative viability (NCI-H2087; first compound 0.005 µM) was 1.11 and the relative viability (NCI-H2087; first compound 0.01581 µM) was 0.834. It also gave a relative viability (NCI-H2087; first compound 0.05 µM) of 0.851, a relative viability (NCI-H2087; first compound 0.1581 µM) of 0.491 and a relative viability (NCI-H2087; first compound 0.5 µM) of 0.253. The relative viability (NCI-H1437; first compound 0.005 µM) was 0.973, the relative viability (NCI-H1437; first compound 0.01581 µM) was 0.922 and the relative viability (NCI-H1437; first compound 0.05 µM) was 0.626. The relative viability (NCI-H1437; first compound 0.1581 µM) was 0.287, the relative viability (NCI-H1437; first compound 0.5 µM) was 0.251 and the relative viability (201T; first compound 0.005 µM) was 1.1. It also gave a relative viability (201T; first compound 0.01581 µM) of 1.12, a relative viability (201T; first compound 0.05 µM) of 1.02 and a relative viability (201T; first compound 0.1581 µM) of 0.762. It also gave a relative viability (201T; first compound 0.5 µM) of 0.323, a relative viability (NCI-H647; first compound 0.005 µM) of 0.625 and a relative viability (NCI-H647; first compound 0.01581 µM) of 0.617. The relative viability (NCI-H647; first compound 0.05 µM) was 0.282, the relative viability (NCI-H647; first compound 0.1581 µM) was 0.109 and the relative viability (NCI-H647; first compound 0.5 µM) was 0.11. The relative viability (CAL-12T; first compound 0.005 µM) was 1.11, the relative viability (CAL-12T; first compound 0.01581 µM) was 1.18 and the relative viability (CAL-12T; first compound 0.05 µM) was 1.05. For the same compound, the relative viability (CAL-12T; first compound 0.1581 µM) was 0.619, the relative viability (CAL-12T; first compound 0.5 µM) was 0.358 and the relative viability (NCI-H322M; first compound 0.005 µM) was 0.827. It also gave a relative viability (NCI-H322M; first compound 0.01581 µM) of 0.761, a relative viability (NCI-H322M; first compound 0.05 µM) of 0.677 and a relative viability (NCI-H322M; first compound 0.1581 µM) of 0.464. For the same compound, the relative viability (NCI-H322M; first compound 0.5 µM) was 0.336, the relative viability (HCC-827; first compound 0.005 µM) was 0.721 and the relative viability (HCC-827; first compound 0.01581 µM) was 0.424. It also gave a relative viability (HCC-827; first compound 0.05 µM) of 0.368, a relative viability (HCC-827; first compound 0.1581 µM) of 0.169 and a relative viability (HCC-827; first compound 0.5 µM) of 0.177. It also gave a relative viability (NCI-H3122; first compound 0.005 µM) of 0.887, a relative viability (NCI-H3122; first compound 0.01581 µM) of 0.805 and a relative viability (NCI-H3122; first compound 0.05 µM) of 0.777. It also gave a relative viability (NCI-H3122; first compound 0.1581 µM) of 0.509, a relative viability (NCI-H3122; first compound 0.5 µM) of 0.344 and a relative viability (LCLC-97TM1; first compound 0.005 µM) of 0.924. The relative viability (LCLC-97TM1; first compound 0.01581 µM) was 0.814, the relative viability (LCLC-97TM1; first compound 0.05 µM) was 0.749 and the relative viability (LCLC-97TM1; first compound 0.1581 µM) was 0.469. For the same compound, the relative viability (LCLC-97TM1; first compound 0.5 µM) was 0.485, the relative viability (LXF-289; first compound 0.005 µM) was 0.939 and the relative viability (LXF-289; first compound 0.01581 µM) was 0.961. The relative viability (LXF-289; first compound 0.05 µM) was 0.749, the relative viability (LXF-289; first compound 0.1581 µM) was 0.412 and the relative viability (LXF-289; first compound 0.5 µM) was 0.299.
